Data published in paper PMC10045483, “Comparative Pharmacokinetic Study of 5 Active Ingredients after Oral Administration of Zuogui Pill in Osteoporotic Rats with Different Syndrome Types” (International Journal of Analytical Chemistry, 2023).
Where two headings read alike, the source gives them in different places.

Key:
[1] = Pharmacokinetic study of 5 compounds in rat plasma after oral administration of Zuogui Pill extract (HPLC-MS/MS, noncompartmental analysis); assay type: in vivo, Female Sprague-Dawley rats; conditions: oral Zuogui Pill extract 1.5 mL/100 g; for Cmax / Tmax / half-life / CL/F / MRT last / MRT inf: female, Sprague-Dawley, rat, po, 1.5 mL/100 g; for Cmax / Tmax / half-life / AUC0–t / AUC0–∞: n = 6; for CL/F: n = 6, read-out: CL_F_obs (converted); for MRT last: n = 6, read-out: MRT0–t; for MRT inf: n = 6, read-out: MRT0–∞
Description: Female Sprague-Dawley rats (180–220 g) were purchased from Shanghai Laboratory Animal Centre (Shanghai, China). The rats were maintained in a standard environment (22 ± 1°C, 60 ± 10% relative humidity, and a 12 h light/dark cycle) for one week to acclimate and fed water and food ad libitum. Twenty-four rats were divided randomly into […] and treated through ovary enucleation to establish the model of osteoporosis. Ten weeks after operation, osteoporosis models of kidney-yang-deficiency and kidney-yin-deficiency were established by intramuscular injection of hydrocortisone (25 mg/kg) and intragastric administration of thyroxine suspension (160 mg/kg) for 10 days, respectively. The femur of two rats from each group was then stained with hematoxylin and eosin (H&E) to assess histopathological change. Also, the validation of osteoporosis kidney-yang-deficiency and kidney-yin-deficiency models was judged by detecting the level of cyclic adenosine monophosphate (cAMP) and cyclic guanosine monophosphate (cGMP) in rat plasma. Laboratory Animal Management and Ethics Committee of Zhejiang Chinese Medical University approved all animal treatments (ZSLL-2014-48).
One hundred microliters of plasma was mixed with 100 μL of the IS solution, followed by 700 μL of methanol:acetonitrile (1 : 1). After 2 min of vortex mixing, the mixture was spun for 15 min at 8000 rpm and 4°C. The supernatants were collected and dried in a high-purity N2 environment. The residues were redissolved in 100 μL methanol and centrifuged for 15 min at 13000 rpm and 4°C. Finally, an aliquot of 10 μL supernatants was used to conduct the analysis.
Four groups of rats were orally administered with Zuogui Pill extract at a dose of 1.5 mL/100 g. Then, 0.3 mL blood samples were collected from orbital veins at 0, 0.08, 0.17, 0.25, 0.5, 1, 2, 4, 6, 8, 12, and 24 h after administration, placed in an anticoagulant tube, and centrifuged for 15 min at 5000 rpm and 4°C. The plasma was prepared and stored at −20°C until analysis.
Phoenix WinNonlin 6.4 software was used to estimate pharmacokinetic parameters using noncompartmental analysis. Furthermore, SPSS 26 software was used to compute comparisons of the pharmacokinetic data among the four groups according to a one-way ANOVA. The results are presented as mean ± SD.

[2] = Stability of analytes in rat plasma (QC samples) under storage conditions; conditions: n = 5; for Stability, Room temperature for 4 h, Mean: 25°C; for Stability, Three freeze-thaw cycles, Mean: −20°C to 25°C
Description: QC samples at three levels using five replicates were used to evaluate the stability under the following conditions: 4 h at room temperature (25°C), 24 h in autosampler (4°C), and three freeze-thaw cycles (−20°C to 25°C).

[3] = osteoporosis rats (ovariectomized)
[4] = osteoporotic rats with kidney-yang-deficiency
[5] = osteoporotic rats with kidney-yin-deficiency
[6] = high QC (800, 16000, 3200, 400, 40 ng/mL in the same order)
[7] = low QC (2, 40, 8, 1, 0.1 ng/mL for chlorogenic acid, loganin, morroniside, aucubin, protocatechuic aldehyde)
[8] = middle QC (40, 800, 160, 20, 2 ng/mL in the same order)

COC(=O)C1=CO[C@@H](O[C@@H]2O[C@H](CO)[C@@H](O)[C@H](O)[C@H]2O)[C@@H]2[C@H](C)O[C@@H](O)C[C@H]12 [Morroniside, morroniside]
Cmax ([1]; normal rats): 1720 ± 410 ng/mL
Tmax ([1]; normal rats): 0.29 ± 0.1 h
half-life ([1]; normal rats): 3.66 ± 1.18 h
CL/F ([1]; normal rats): 49.4 mL/min/kg
MRT last ([1]; normal rats): 3.41 ± 0.33 h
MRT inf ([1]; normal rats): 3.66 ± 0.48 h
Cmax [1, 3]: 1110 ± 163 ng/mL
Tmax [1, 3]: 0.26 ± 0.02 h
half-life [1, 3]: 2.4 ± 0.51 h
CL/F [1, 3]: 59.2 mL/min/kg
MRT last [1, 3]: 4.37 ± 0.43 h
MRT inf [1, 3]: 4.51 ± 0.38 h
Cmax [1, 4]: 1450 ± 337 ng/mL
Tmax [1, 4]: 0.19 ± 0.04 h
half-life [1, 4]: 3.83 ± 0.64 h
CL/F [1, 4]: 59.4 mL/min/kg
MRT last [1, 4]: 4.68 ± 0.24 h
MRT inf [1, 4]: 5.03 ± 0.33 h
Cmax [1, 5]: 1750 ± 321 ng/mL
Tmax [1, 5]: 0.24 ± 0.03 h
half-life [1, 5]: 2.9 ± 0.65 h
CL/F [1, 5]: 28.3 mL/min/kg
MRT last [1, 5]: 5.08 ± 0.74 h
MRT inf [1, 5]: 5.21 ± 0.78 h
AUC0–t ([1]; normal rats): 2151.00 ± 498.88 h∗ng/mL
AUC0–∞ ([1]; normal rats): 2171.33 ± 509.45 h∗ng/mL
AUC0–t [1, 3]: 1724.77 ± 149.05 h∗ng/mL
AUC0–∞ [1, 3]: 1741.55 ± 136.08 h∗ng/mL
AUC0–t [1, 4]: 1726.42 ± 217.11 h∗ng/mL
AUC0–∞ [1, 4]: 1750.35 ± 215.20 h∗ng/mL
AUC0–t [1, 5]: 3764.53 ± 842.38^∗∗ h∗ng/mL
AUC0–∞ [1, 5]: 3782.41 ± 832.52^∗∗ h∗ng/mL
Stability, Room temperature for 4 h, Mean [2, 6]: 98.3%
Stability, Room temperature for 4 h, Mean [2, 7]: 90.8%
Stability, Room temperature for 4 h, Mean [2, 8]: 86.1%
Stability, Autosampler at 4°C for 24 h, Mean [2, 6]: 95.0%
Stability, Autosampler at 4°C for 24 h, Mean [2, 7]: 89.6%
Stability, Autosampler at 4°C for 24 h, Mean [2, 8]: 87.6%
Stability, Three freeze-thaw cycles, Mean [2, 6]: 89.8%
Stability, Three freeze-thaw cycles, Mean [2, 7]: 93.0%
Stability, Three freeze-thaw cycles, Mean [2, 8]: 91.5%

O=Cc1ccc(O)c(O)c1 [Protocatechuic aldehyde, protocatechuic aldehyde]
Cmax ([1]; normal rats): 18.9 ± 3.62 ng/mL
Tmax ([1]; normal rats): 0.45 ± 0.1 h
half-life ([1]; normal rats): 10.9 ± 4.48 h
CL/F ([1]; normal rats): 12.5 mL/min/kg
MRT last ([1]; normal rats): 5.14 ± 0.17 h
MRT inf ([1]; normal rats): 15.8 ± 6.12 h
Cmax [1, 3]: 10.1 ± 1.99 ng/mL
Tmax [1, 3]: 0.3 h
half-life [1, 3]: 12 ± 4.69 h
CL/F [1, 3]: 21.3 mL/min/kg
MRT last [1, 3]: 5.52 ± 0.21 h
MRT inf [1, 3]: 17.8 ± 6.26 h
Cmax [1, 4]: 11.4 ± 1.31 ng/mL
half-life [1, 4]: 2.09 ± 0.89 h
CL/F [1, 4]: 50.5 mL/min/kg
MRT last [1, 4]: 2.55 ± 0.18 h
MRT inf [1, 4]: 3.5 ± 1.38 h
Cmax [1, 5]: 8.81 ± 1.61 ng/mL
Tmax [1, 5]: 0.17 ± 0.07 h
half-life [1, 5]: 2.2 ± 0.83 h
CL/F [1, 5]: 48.9 mL/min/kg
MRT last [1, 5]: 3.24 ± 0.37 h
MRT inf [1, 5]: 3.79 ± 0.79 h
AUC0–t ([1]; normal rats): 64.15 ± 10.30^∗∗ h∗ng/mL
AUC0–∞ ([1]; normal rats): 119.88 ± 32.93^∗∗ h∗ng/mL
AUC0–t [1, 3]: 34.92 ± 2.37 h∗ng/mL
AUC0–∞ [1, 3]: 72.28 ± 21.64 h∗ng/mL
AUC0–t [1, 4]: 24.70 ± 1.69^∗∗ h∗ng/mL
AUC0–∞ [1, 4]: 28.68 ± 6.49^∗∗ h∗ng/mL
AUC0–t [1, 5]: 27.48 ± 3.10^∗∗ h∗ng/mL
AUC0–∞ [1, 5]: 28.87 ± 2.69^∗∗ h∗ng/mL
Stability, Room temperature for 4 h, Mean [2, 6]: 87.4%
Stability, Room temperature for 4 h, Mean [2, 7]: 86.8%
Stability, Room temperature for 4 h, Mean [2, 8]: 90.9%
Stability, Autosampler at 4°C for 24 h, Mean [2, 6]: 85.9%
Stability, Autosampler at 4°C for 24 h, Mean [2, 7]: 88.4%
Stability, Autosampler at 4°C for 24 h, Mean [2, 8]: 89.3%
Stability, Three freeze-thaw cycles, Mean [2, 6]: 89.5%
Stability, Three freeze-thaw cycles, Mean [2, 7]: 90.8%
Stability, Three freeze-thaw cycles, Mean [2, 8]: 83.4%
